Several values for one entry are separate records, joined by “and”; a condition that tells them apart may be missing. Equal values may be shown once.
Columns and labels:
[1] = tested on: BGLT3 RNA in HUDEP-2 cells; assay: RT-qPCR of BGLT3 in HUDEP-2 cells; format: cell-based, human
Outline: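 Total RNA reverse-transcribed to cDNA, then target transcripts quantified by SYBR Green real-time qPCR. Expression normalized to GAPDH as reference gene.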

DNMT3b = DNMT3b (Homo sapiens, UniProt Q9UBC3); assay: biochemical
NSD1 = molecular target: T1, NSD1 (Homo sapiens, UniProt Q96L73); assay: Radioisotope-based methyltransferase assay (selectivity); format: biochemical
T1 construct: purchased Reaction Biology
T1 sequence (Q96L73 whole entry): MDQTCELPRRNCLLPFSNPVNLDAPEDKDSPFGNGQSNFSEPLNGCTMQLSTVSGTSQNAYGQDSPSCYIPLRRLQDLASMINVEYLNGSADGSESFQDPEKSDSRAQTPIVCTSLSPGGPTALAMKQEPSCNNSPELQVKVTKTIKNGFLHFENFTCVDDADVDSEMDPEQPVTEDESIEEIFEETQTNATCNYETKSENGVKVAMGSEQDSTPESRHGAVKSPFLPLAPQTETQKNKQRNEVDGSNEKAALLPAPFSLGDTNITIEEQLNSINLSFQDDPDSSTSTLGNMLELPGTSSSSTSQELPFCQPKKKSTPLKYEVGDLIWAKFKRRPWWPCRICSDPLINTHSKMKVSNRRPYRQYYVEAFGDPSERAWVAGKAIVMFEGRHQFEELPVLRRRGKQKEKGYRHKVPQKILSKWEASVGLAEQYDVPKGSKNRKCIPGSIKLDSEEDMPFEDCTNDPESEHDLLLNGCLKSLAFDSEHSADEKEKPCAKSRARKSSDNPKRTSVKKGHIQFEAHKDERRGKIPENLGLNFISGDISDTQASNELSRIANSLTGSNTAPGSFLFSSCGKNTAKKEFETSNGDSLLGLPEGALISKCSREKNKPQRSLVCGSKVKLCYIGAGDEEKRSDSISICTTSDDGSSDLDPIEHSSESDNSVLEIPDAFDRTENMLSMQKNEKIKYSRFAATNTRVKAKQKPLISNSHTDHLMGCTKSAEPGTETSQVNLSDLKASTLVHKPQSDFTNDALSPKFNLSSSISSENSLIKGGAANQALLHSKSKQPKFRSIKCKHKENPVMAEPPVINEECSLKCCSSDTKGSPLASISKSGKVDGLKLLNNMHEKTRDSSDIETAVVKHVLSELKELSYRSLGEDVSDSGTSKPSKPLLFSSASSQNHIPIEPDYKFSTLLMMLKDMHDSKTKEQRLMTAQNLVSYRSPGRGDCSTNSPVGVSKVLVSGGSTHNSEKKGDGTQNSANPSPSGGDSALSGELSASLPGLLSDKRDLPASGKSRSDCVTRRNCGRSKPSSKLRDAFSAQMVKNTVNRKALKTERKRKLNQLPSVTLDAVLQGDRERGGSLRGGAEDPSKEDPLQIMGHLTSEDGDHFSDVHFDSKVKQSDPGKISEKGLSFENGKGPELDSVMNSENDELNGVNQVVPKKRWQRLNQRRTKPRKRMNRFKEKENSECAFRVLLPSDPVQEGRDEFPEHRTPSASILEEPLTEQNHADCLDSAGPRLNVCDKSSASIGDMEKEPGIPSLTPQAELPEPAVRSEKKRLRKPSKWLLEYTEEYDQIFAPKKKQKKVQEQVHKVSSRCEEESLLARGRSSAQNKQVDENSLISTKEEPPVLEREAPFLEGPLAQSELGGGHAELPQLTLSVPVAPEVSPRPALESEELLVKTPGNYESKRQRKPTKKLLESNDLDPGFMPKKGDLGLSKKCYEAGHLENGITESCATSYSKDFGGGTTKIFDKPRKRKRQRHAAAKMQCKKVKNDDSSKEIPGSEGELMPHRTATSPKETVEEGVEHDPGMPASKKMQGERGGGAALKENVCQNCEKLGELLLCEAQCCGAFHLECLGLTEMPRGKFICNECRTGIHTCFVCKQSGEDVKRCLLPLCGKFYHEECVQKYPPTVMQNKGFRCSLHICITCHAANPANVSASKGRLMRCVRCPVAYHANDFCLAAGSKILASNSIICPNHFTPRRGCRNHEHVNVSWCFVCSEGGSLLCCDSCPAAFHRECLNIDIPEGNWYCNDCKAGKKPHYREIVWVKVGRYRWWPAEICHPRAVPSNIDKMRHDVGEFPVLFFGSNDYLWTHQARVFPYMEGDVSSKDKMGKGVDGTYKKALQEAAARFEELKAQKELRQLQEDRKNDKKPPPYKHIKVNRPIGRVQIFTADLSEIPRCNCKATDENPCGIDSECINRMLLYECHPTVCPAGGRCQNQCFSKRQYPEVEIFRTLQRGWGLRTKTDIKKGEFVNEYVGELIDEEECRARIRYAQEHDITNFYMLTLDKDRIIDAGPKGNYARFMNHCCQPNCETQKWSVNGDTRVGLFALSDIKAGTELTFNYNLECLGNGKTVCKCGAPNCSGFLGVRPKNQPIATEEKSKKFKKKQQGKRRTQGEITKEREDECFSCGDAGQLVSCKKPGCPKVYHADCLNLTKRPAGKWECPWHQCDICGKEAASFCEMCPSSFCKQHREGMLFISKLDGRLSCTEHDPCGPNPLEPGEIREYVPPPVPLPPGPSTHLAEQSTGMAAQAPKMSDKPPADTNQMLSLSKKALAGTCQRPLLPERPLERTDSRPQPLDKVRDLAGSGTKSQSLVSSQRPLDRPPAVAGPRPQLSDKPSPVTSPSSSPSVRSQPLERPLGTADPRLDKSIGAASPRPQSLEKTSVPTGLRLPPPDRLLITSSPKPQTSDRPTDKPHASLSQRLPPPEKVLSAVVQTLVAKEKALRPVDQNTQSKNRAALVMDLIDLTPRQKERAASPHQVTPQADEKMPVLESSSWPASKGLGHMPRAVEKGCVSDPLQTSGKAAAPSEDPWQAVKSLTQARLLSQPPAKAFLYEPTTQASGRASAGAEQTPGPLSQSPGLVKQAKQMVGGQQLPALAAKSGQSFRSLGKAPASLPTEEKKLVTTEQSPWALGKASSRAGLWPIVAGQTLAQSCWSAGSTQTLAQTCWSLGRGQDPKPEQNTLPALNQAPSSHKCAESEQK

GLP [2] = molecular target: T2, GLP (Homo sapiens, UniProt Q9H9B1); assay: as above
T2 sequence (Q9H9B1 1-1298): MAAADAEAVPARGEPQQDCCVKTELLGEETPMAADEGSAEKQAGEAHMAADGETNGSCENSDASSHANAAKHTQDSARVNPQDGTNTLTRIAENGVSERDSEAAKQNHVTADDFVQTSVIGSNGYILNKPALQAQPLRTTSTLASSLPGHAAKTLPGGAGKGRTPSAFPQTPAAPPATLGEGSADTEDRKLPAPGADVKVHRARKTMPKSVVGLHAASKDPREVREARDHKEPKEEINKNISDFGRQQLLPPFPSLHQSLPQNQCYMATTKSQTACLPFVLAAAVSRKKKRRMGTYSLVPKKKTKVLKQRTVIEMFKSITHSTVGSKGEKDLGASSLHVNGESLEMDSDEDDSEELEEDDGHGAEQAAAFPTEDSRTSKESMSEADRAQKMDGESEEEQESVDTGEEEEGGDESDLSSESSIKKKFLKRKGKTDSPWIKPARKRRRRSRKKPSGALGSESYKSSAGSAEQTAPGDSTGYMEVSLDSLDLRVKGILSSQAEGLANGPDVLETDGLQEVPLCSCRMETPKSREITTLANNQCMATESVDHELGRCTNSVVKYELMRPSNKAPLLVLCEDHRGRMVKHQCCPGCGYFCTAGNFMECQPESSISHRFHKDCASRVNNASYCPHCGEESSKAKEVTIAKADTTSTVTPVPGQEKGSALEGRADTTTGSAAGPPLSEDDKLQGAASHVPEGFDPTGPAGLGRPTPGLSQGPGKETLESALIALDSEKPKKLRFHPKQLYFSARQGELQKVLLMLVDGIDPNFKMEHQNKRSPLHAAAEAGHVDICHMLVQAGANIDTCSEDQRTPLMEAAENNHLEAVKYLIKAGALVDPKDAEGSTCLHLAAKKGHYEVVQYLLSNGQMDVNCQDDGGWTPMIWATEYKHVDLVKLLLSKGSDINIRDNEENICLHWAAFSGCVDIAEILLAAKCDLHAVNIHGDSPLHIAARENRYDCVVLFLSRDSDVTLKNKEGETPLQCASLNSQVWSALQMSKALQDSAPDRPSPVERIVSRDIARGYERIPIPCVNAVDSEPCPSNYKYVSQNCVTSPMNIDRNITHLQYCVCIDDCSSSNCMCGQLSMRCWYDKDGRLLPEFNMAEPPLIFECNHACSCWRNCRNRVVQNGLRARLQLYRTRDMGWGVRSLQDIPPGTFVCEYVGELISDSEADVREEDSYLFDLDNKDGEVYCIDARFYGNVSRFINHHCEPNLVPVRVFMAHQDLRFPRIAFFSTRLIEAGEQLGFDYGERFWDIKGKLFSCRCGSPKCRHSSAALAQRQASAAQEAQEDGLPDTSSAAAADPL

GLP [3] = molecular target: T2, GLP; assay: biochemical
EZH2 = EZH2 (Homo sapiens, UniProt Q15910); assay: Radioisotope-based methyltransferase assay (selectivity)
[4] = tested on: rat myoblast cell line H9c2; assay: Cell viability assay (WST-8), H9c2; format: cell-based; conditions: for cell viability in H9c2 cells: control (0 μM) = 100
Experimental: (§1) A WST-8 (2-(2-methoxy-4-nitrophenyl)-3-(4-nitrophenyl)-5-(2,4-disulfophenyl)-2H-tetrazolium) assay using a Cell Counting Kit-8 (DOJINDO) was performed to measure cell viability using an EnSpire microplate reader (PerkinElmer).

[5] = Cell viability assay (WST-8), H9c2; format: cell-based, rat; conditions: rat, H9c2 myoblast cells, control (0 μM) = 100
Experimental: as §1

| SMILES | BGLT3 expression ([1]; HUDEP-2) | IC50 (DNMT3b) [µM] | IC50 (NSD1; NSD1, 1 μM SAM) [µM] | IC50 (NSD1; NSD1, RK-701 in duplicate) [µM] | IC50 (GLP [3]) | cell viability in H9c2 cells ([4]; 0.039 μM) | cell viability in H9c2 cells ([4]; 0.156 μM) | cell viability in H9c2 cells ([4]; 0.625 μM) | cell viability in H9c2 cells ([4]; 2.5 μM) | cell viability in H9c2 cells ([4]; 10.0 μM) | viability at 0.039 μM [5] [%] | viability at 0.156 μM [5] [%] | also measured |
| --- | --- | --- | --- | --- | --- | --- | --- | --- | --- | --- | --- | --- | --- |
| NC(=O)NO [Hydroxyurea, hydroxyurea] | promoted BGLT3 expression | – | – | – | – | – | – | – | – | – | – | – | BGLT3 expression in HUDEP-2 cells treated with hydroxyurea ([1]; 50 μM, relative to DMSO = 1, replicate values): 1.625 and 1.206 and 1.616; BGLT3 expression in HUDEP-2 cells treated with hydroxyurea ([1]; 100 μM, relative to DMSO = 1, replicate values): 1.87 and 1.919 and 2.091; BGLT3 expression in HUDEP-2 cells treated with hydroxyurea ([1]; 200 μM, relative to DMSO = 1, replicate values): 2.757 and 2.815 and 4.093; BGLT3 expression ([1]; Left panel, Parental HUDEP-2 cells treated with hydroxyurea, Parental DMSO = 1, 3 replicates): 2.685 and 2.462 and 3.265; BGLT3 expression ([1]; Right panel, Parental HUDEP-2 cells treated with hydroxyurea, DMSO of the same cells = 1, 3 replicates): 2.685 and 2.462 and 3.265 |
| Cc1c(C(=O)NC(CCC2CC2)C(=O)Nc2ccc(C#N)cc2)[nH]c2c1C(=O)CC(C)(C)C2 (centres unmarked) [RK-701] | induced BGLT3 expression | > 100 | > 100 | > 100 | 0.0486 µM and 0.0577 µM | 91.465 and 104.927 | 91.465 and 106.022 | 97.754 and 88.280 and 116.423 | 95.509 and 92.994 and 114.051 | 145.310 and 89.427 and 118.431 | 101 | 95.6 | BGLT3 expression ([1]; parental HUDEP-2 cells treated with RK-701, parental DMSO = 1, replicates 1a-3b): 3.454 and 1.802 and 1.321 and 3.995 and 3.605 and 4.281; BGLT3 expression in HUDEP-2 cells treated with RK-701 and decitabine ([1]; single agents or combination, relative to DMSO = 1, replicate values): 2.098 and 1.983 and 1.578; IC50 (GLP [2]): 0.053 µM; IC50 (EZH2): > 100 µM; cytotoxic effect on viability ([4]; H9c2, 5 days): essentially no cytotoxic effect |
| Cc1c(C(=O)N[C@H](CCC2CC2)C(=O)Nc2ccc(C#N)cc2)[nH]c2c1C(=O)CC(C)(C)C2 [RK-0133114] | – | – | – | – | – | 95.980 and 104.160 | 93.342 and 91.200 | 99.497 and 102.560 | 93.970 and 103.040 | 89.573 and 98.080 | 89.5 | 100 | viability at 0.625 μM ([5]; 0.625 μM): 116%; viability at 2.5 μM ([5]; 2.5 μM): 85.5%; viability at 10 μM ([5]; 10.0 μM): 106% |
| Nc1ncnc2c1ncn2[C@@H]1O[C@H](CSCC[C@H](N)C(=O)O)[C@@H](O)[C@H]1O [SAH, S-(5'-Adenosyl)-L-homocysteine, reference compound] | – | 0.112 | 56.6 | 56.6 | 3.86 µM | – | – | – | – | – | – | – | IC50 (GLP [2]; 1 μM SAM): 3.86 µM |
